Measured values from the supplement of paper PMC5908809.

Assays:
[1] = test system: normal NK cells expanded with K562-aAPC; experiment: percent inhibition of viability; higher = more inhibition; conditions: 72 h, IL-2 2.5 ng/mL
Description: (§1)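 Drug sensitivity and resistance testing on K562-aAPC-expanded normal NK cells: 5 concentrations (10-fold steps over a 10,000-fold range), 72 h at 37 °C, viability by CellTiter-Glo normalised to DMSO and benzethonium chloride controls; DSS from the fitted curve.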

[2] = test system: DERL-7 (IL-2 2.5 ng/mL); experiment: as above; conditions: 72 h
[3] = test system: IMC-1 (IL-2 20 ng/mL); experiment: as above; conditions: 72 h
[4] = test system: KAI3 (IL-2 2.5 ng/mL); experiment: as above; conditions: 72 h
[5] = test system: KHYG-1 (IL-2 2.5 ng/mL); experiment: as above; conditions: 72 h
[6] = test system: NK-92 (IL-2 2.5 ng/mL); experiment: as above; conditions: 72 h
[7] = test system: NK-YS (IL-2 2.5 ng/mL); experiment: as above; conditions: 72 h
[8] = test system: NKL (IL-2 2.5 ng/mL); experiment: as above; conditions: 72 h
[9] = test system: SNK-6 (IL-2 2.5 ng/mL); experiment: as above; conditions: 72 h
[10] = test system: YT (IL-2 2.5 ng/mL); experiment: as above; conditions: 72 h
[11] = test system: normal primary NK cells, pool 1 (3 donors) (IL-2 2.5 ng/mL); experiment: as above; conditions: 72 h
[12] = test system: normal primary NK cells, pool 1 (3 donors), resting (IL-2 0 ng/mL); experiment: as above; conditions: 72 h
[13] = test system: normal primary NK cells, pool 2 (3 donors) (IL-2 2.5 ng/mL); experiment: as above; conditions: 72 h
[14] = test system: normal primary NK cells, pool 3 (3 donors) (IL-2 2.5 ng/mL); experiment: as above; conditions: 72 h
[15] = test system: normal NK cells expanded with K562-aAPC; experiment: drug sensitivity score (DSS) (DSS units); higher = more sensitive; extreme values may be limits of the assay; conditions: 72 h; IL-2 2.5 ng/mL
Description: as §1

[16] = test system: DERL-7 (IL-2 2.5 ng/mL); experiment: as above; conditions: 72 h
[17] = test system: IMC-1 (IL-2 20 ng/mL); experiment: as above; conditions: 72 h
[18] = test system: KAI3 (IL-2 2.5 ng/mL); experiment: as above; conditions: 72 h
[19] = test system: KHYG-1 (IL-2 2.5 ng/mL); experiment: as above; conditions: 72 h
[20] = test system: NK-92 (IL-2 2.5 ng/mL); experiment: as above; conditions: 72 h
[21] = test system: NK-YS (IL-2 2.5 ng/mL); experiment: as above; conditions: 72 h
[22] = test system: NKL (IL-2 2.5 ng/mL); experiment: as above; conditions: 72 h
[23] = test system: SNK-6 (IL-2 2.5 ng/mL); experiment: as above; conditions: 72 h
[24] = test system: YT (IL-2 2.5 ng/mL); experiment: as above; conditions: 72 h
[25] = test system: normal primary NK cells, pool 1 (3 donors) (IL-2 2.5 ng/mL); experiment: as above; conditions: 72 h
[26] = test system: normal primary NK cells, pool 1 (3 donors), resting (IL-2 0 ng/mL); experiment: as above; conditions: 72 h
[27] = test system: normal primary NK cells, pool 2 (3 donors) (IL-2 2.5 ng/mL); experiment: as above; conditions: 72 h
[28] = test system: normal primary NK cells, pool 3 (3 donors) (IL-2 2.5 ng/mL); experiment: as above; conditions: 72 h

CC[C@@]1(O)C(=O)OCc2c1cc1n(c2=O)Cc2cc3ccccc3nc2-1 [Camptothecin] (max concentration tested 5000 nM)
percent inhibition of viability [%]
Conditions	0.5 nM	5 nM	50 nM	500 nM	5000 nM
[1]	4.05	11.2	54.7	59.6	97.7
[2]	1	20.8	97.7	92.9	100
[3]	-1.32	4.46	99.7	100	100
[4]	11.5	49.2	86.9	62.4	97.2
[5]	-0.47	50.6	101	102	99.9
[6]	4.55	41.4	101	102	99.6
[7]	0.45	66.1	93.3	87.5	100
[8]	11.3	91.1	102	98.4	92.3
[9]	19.8	56.5	96.8	98	99.4
[10]	-3.33	5.46	90	100	99.6
[11]	-11.7	2.76	-4.81	19.9	41.6
[12]	-1.99	11.5	-26.2	-25.7	-5.52
[13]	-7.85	0.79	8.18	26.8	60.9
[14]	0.98	3.16	10.9	36.9	60.6

Conditions	drug sensitivity score
[15]	19.8
[16]	33.3
[17]	31
[18]	36.2
[19]	36.8
[20]	35.6
[21]	38.3
[22]	43.1
[23]	37.5
[24]	29.5
[25]	4.65
[26]	0
[27]	6.31
[28]	8.23
